From PMC6754133 (PLoS ONE, 2019)

Assays:
[1] = test system: Mast/stem cell growth factor receptor Kit (KIT_HUMAN); set-up: method as in earlier work; conditions: S2/S3 Table; ref [1] Davis MI et al., Nat Biotechnol. 2011; cited from earlier work
MB-PDX and DAOY cells = assay: Cell viability with and without Vismodegib (0.5 uM), alamar blue; assay type: cell-based, human; conditions: with 0.5 μM Vismodegib, 72 hours
Protocol: S6 Figure: Cell viability in Medulloblastoma Cells (MB-PDX and DAOY) [n=3]. […] The cell viability was measured after 72 hours of treatment using alamar blue. (Mean ± SD)

[2] = test system: Platelet-derived growth factor receptor beta (PGFRB_HUMAN); set-up: method as in earlier work; conditions: S2/S3 Table; ref [1] Davis MI et al., Nat Biotechnol. 2011; cited from earlier work
[3] = test system: Platelet-derived growth factor receptor alpha (PGFRA_HUMAN); set-up: method as in earlier work; conditions: S2/S3 Table; ref [1] Davis MI et al., Nat Biotechnol. 2011; cited from earlier work
DAOY cells = assay: Neurosphere formation assay; assay type: cell-based, human; conditions: DAOY, 10 μM, at least 7 days, 1–2 cells per well
Protocol: (§1) The final concentration of test compounds in the wells was 10 μM. Cells were incubated at 37 °C for at least seven days. After incubation percent of wells positive with neural stem cell-derived sphere colonies were calculated for each test condition and compared.

MB-PDX cells = assay: Neurosphere formation assay; assay type: cell-based, human; conditions: MB-PDX, 10 μM, at least 7 days, 1–2 cells per well
Protocol: as §1

Hh/SMO pathway = assay: Gli-Luciferase functional assay, NIH 3T3 Gli-RE cells stimulated with ShhN; assay type: cell-based; conditions: NIH 3T3 Gli-RE cells, ShhN stimulated
Protocol: After 24 hours, when the cells reached confluency, the culture medium was replaced with 80 μL per well of assay medium [Optimem ± 10 mM HEPES ± 1 mM Sodium Pyruvate + 1× MEM NEAA]. […] Then the cells were stimulated by addition of either ShhN-conditioned media or control media (DMEM±10%BCS) at a final concentration of 10%. Following incubation of the plate for at least 28 hours at 37°C, the cells were simultaneously lysed and supplemented with a luciferase substrate by addition of equal volume of Steady-Glo reagent (Promega, E2520) directly to the assay media. Plates were mixed by pipetting, centrifuged to eliminate foam, incubated for 10 minutes, and analyzed using Perkin Elmer Viktor X luminescence plate reader. The results were analyzed using a non-linear regression (Prism 6, GraphPad Software, La Jolla, CA). Data were normalized to the maximal response observed for ShhN-stimulated cells in the same experiment. A sigmoidal-dose response curve was used as a model for data analysis and IC50 value calculation.

[4] = test system: firefly luciferase under control of cAMP response element (CRE); assay: CRE-luciferase counter assay in HEK293s cells; assay type: cell-based; conditions: different concentrations
Protocol: (a) The drugs were tested at different concentrations in HEK293s cells stably transfected with firefly luciferase under control of cAMP response element (CRE) (pGL4.29[luc2P/CRE/Hygro], Promega). […] Raw, non-normalized luminescence values are presented, to facilitate the assessment of the extent of inhibition. Shown is a single representative experiment out of the multiple experiments performed on different days. (Mean ± SD)

Cc1ccc(NC(=O)c2ccc(CN3CCN(C)CC3)cc2)cc1Nc1nccc(-c2cccnc2)n1 [Imatinib]
Kd/Ki Value [1]: 13 nM | Change of efficacy in cell viability assay in the presence of Vismodegib (MB-PDX and DAOY cells): improvement in efficacy | Kd/Ki Value [2]: 14 nM | Kd/Ki Value [3]: 31 nM | Inhibition of NS formation, wells (DAOY cells): less potent | Inhibition of NS formation, wells (MB-PDX cells): less potent | Inhibition of ShhN-induced Hh signaling (in words) (Hh/SMO pathway): inhibited ShhN-induced Hh signaling in a dose-dependent manner | Effect on CRE-driven luciferase activity (independent of SMO) [4]: lack of dose-dependent effect
